Results published in patent US20040116505A1, “Treatment of tics, tremors and related disorders” (priority 2001, published 2004).

What was measured:
[1] = cited from earlier work
[2] = tested on: patients suffering from tics; assay: Study in five patients suffering from tics who failed standard drug therapies; format: in vivo, human; details: five patients non-responsive to standard tic therapies; 250 mg BID or 500 mg BID to 1500 mg BID
Procedure: Patients received either Low (250 mg BID) or standard doses (500 mg BID to 1500 mg BID) of levetiracetam.

[3] = in vivo; cited from earlier work

CC[C@@H](C(N)=O)N1CCCC1=O [levetiracetam, (S)-2-(2-Oxo-pyrrolidin-1-yl)-butyramide]
levetiracetam excreted unchanged or as an inactive metabolite ([1]; in vivo): 90%
oral bioavailability ([1]; oral): ~100%
reduction of tic symptoms [2]: majority of patients experienced a reduction of tic symptoms
side effects [3]: minimal side effects
